Laboratory results published in the NIST ThermoML archive (doi:10.1021/acs.jced.5b00820).

Test: refractive index (Na D-line) (dimensionless); xn = mol fraction of the nth substance listed
Conditions: 102.2 kPa, Liquid, Standard Abbe refractometry

C[Si](C)(O[Si](C)(C)c1ccccc1)c1ccccc1 [1,3-diphenyltetramethyldisiloxane] + C=C[Si]1(C)O[Si](C)(C=C)O[Si](C)(C=C)O[Si](C)(C=C)O1
refractive index
Conditions	308.15 K	313.15 K	318.15 K	323.15 K	328.15 K
x1 = 0.0511	1.43117	1.4288	1.42643	1.42402	1.42168
x1 = 0.1004	1.43477	1.43241	1.43005	1.42765	1.42534
x1 = 0.1503	1.43849	1.4361	1.43374	1.43138	1.42904
x1 = 0.2	1.44222	1.43984	1.4375	1.43511	1.43277
x1 = 0.2537	1.4463	1.44393	1.44162	1.43922	1.43688
x1 = 0.3001	1.4499	1.44754	1.44521	1.44282	1.44051
x1 = 0.3507	1.45386	1.4515	1.44918	1.44682	1.44446
x1 = 0.4002	1.4578	1.45544	1.45312	1.45075	1.4484
x1 = 0.4503	1.46186	1.45951	1.45719	1.45481	1.45253
x1 = 0.4999	1.4659	1.46356	1.46122	1.45885	1.45654
x1 = 0.5501	1.47011	1.46778	1.46545	1.46309	1.46081
x1 = 0.597	1.47406	1.47174	1.46939	1.46705	1.46474
x1 = 0.6498	1.47861	1.47627	1.47398	1.47166	1.46934
x1 = 0.7005	1.48302	1.48067	1.47836	1.47601	1.47373
x1 = 0.7492	1.48734	1.48502	1.48271	1.48037	1.47809
x1 = 0.8001	1.49193	1.48963	1.4873	1.48499	1.48269
x1 = 0.8497	1.49647	1.49417	1.49187	1.4896	1.48727
x1 = 0.8999	1.50106	1.49877	1.49645	1.49415	1.4918
x1 = 0.9502	1.50586	1.50356	1.50122	1.49894	1.49665
x1 = 1	1.51066	1.50836	1.5061	1.50381	1.5015

C[Si](C)(O[Si](C)(C)c1ccccc1)c1ccccc1 [1,3-diphenyltetramethyldisiloxane] + C=C[Si](C)(C)O[Si](C)(C)C=C
refractive index
Conditions	308.15 K	313.15 K	318.15 K	323.15 K	328.15 K
x1 = 0.0502	1.41155	1.40892	1.40628	1.40366	1.40099
x1 = 0.1	1.41834	1.41574	1.41315	1.41057	1.40797
x1 = 0.1487	1.42478	1.42224	1.41967	1.41713	1.41456
x1 = 0.2002	1.43134	1.42886	1.42631	1.42381	1.42128
x1 = 0.2498	1.43748	1.43501	1.43251	1.43004	1.4275
x1 = 0.3	1.44347	1.44103	1.43853	1.43607	1.43356
x1 = 0.3503	1.4493	1.44687	1.4444	1.44199	1.43951
x1 = 0.3994	1.45477	1.45239	1.44994	1.44752	1.44508
x1 = 0.4502	1.46032	1.45792	1.45549	1.45314	1.45071
x1 = 0.5001	1.46558	1.46321	1.46081	1.45844	1.45605
x1 = 0.5498	1.47066	1.46834	1.46594	1.4636	1.4612
x1 = 0.6002	1.47565	1.47332	1.47093	1.46859	1.46619
x1 = 0.6502	1.48048	1.47816	1.47577	1.47346	1.47107
x1 = 0.7004	1.48515	1.48285	1.48049	1.47821	1.47583
x1 = 0.7504	1.48971	1.48739	1.48506	1.48275	1.48038
x1 = 0.8003	1.4941	1.49177	1.48948	1.48715	1.48483
x1 = 0.8498	1.49836	1.49606	1.49375	1.49142	1.48912
x1 = 0.8986	1.50242	1.50013	1.49781	1.49552	1.4932
x1 = 0.9502	1.50659	1.50428	1.50198	1.49974	1.49743
x1 = 1	1.51052	1.5082	1.50593	1.50366	1.50133

C[Si](C)(O[Si](C)(C)c1ccccc1)c1ccccc1 [1,3-diphenyltetramethyldisiloxane] + C[Si]1(C)O[Si](C)(C)O[Si](C)(C)O[Si](C)(C)O1
refractive index
Conditions	308.15 K	313.15 K	318.15 K	323.15 K	328.15 K
x1 = 0.05	1.3951	1.39261	1.3901	1.38762	1.38512
x1 = 0.0999	1.40098	1.39849	1.39602	1.39357	1.39102
x1 = 0.1503	1.40694	1.40447	1.40199	1.39957	1.39707
x1 = 0.2005	1.41292	1.41044	1.40799	1.40557	1.40311
x1 = 0.2507	1.41891	1.41644	1.41401	1.41159	1.40913
x1 = 0.2963	1.42436	1.42193	1.41951	1.41708	1.41464
x1 = 0.3509	1.43091	1.42847	1.42607	1.42366	1.42126
x1 = 0.4001	1.43683	1.4344	1.43201	1.42964	1.42721
x1 = 0.4471	1.44251	1.44009	1.4377	1.4353	1.4329
x1 = 0.4968	1.44855	1.44616	1.44376	1.44142	1.43901
x1 = 0.5512	1.45518	1.45281	1.45043	1.44806	1.44571
x1 = 0.6003	1.46117	1.45878	1.45644	1.45407	1.45173
x1 = 0.6502	1.46727	1.46493	1.46256	1.46023	1.45785
x1 = 0.7001	1.47342	1.47107	1.46872	1.46638	1.46407
x1 = 0.7497	1.47954	1.47718	1.47488	1.47255	1.47021
x1 = 0.8	1.48577	1.48342	1.48109	1.47882	1.47646
x1 = 0.85	1.49197	1.48966	1.48733	1.48504	1.48273
x1 = 0.896	1.49768	1.49532	1.49303	1.49072	1.48841
x1 = 0.9497	1.50436	1.50202	1.49976	1.49748	1.49518
x1 = 1	1.51064	1.50832	1.50605	1.50377	1.50144

C[Si](C)(O[Si](C)(C)c1ccccc1)c1ccccc1 [1,3-diphenyltetramethyldisiloxane] + C[Si]1(CCC(F)(F)F)O[Si](C)(CCC(F)(F)F)O[Si](C)(CCC(F)(F)F)O1
refractive index
Conditions	308.15 K	313.15 K	318.15 K	323.15 K	328.15 K
x1 = 0.0501	1.36577	1.36376	1.36177	1.35973	1.3577
x1 = 0.1001	1.37152	1.36949	1.36745	1.36544	1.36339
x1 = 0.1499	1.37745	1.37541	1.37337	1.37133	1.36931
x1 = 0.2005	1.38359	1.38155	1.3795	1.37746	1.37541
x1 = 0.2497	1.38975	1.38769	1.38565	1.38355	1.38148
x1 = 0.3	1.39624	1.39416	1.39207	1.39	1.38792
x1 = 0.3431	1.40191	1.39984	1.39775	1.39565	1.3936
x1 = 0.4001	1.40958	1.40754	1.40546	1.40337	1.40125
x1 = 0.45	1.41665	1.41456	1.41246	1.41033	1.40824
x1 = 0.4998	1.42386	1.42173	1.41969	1.4175	1.41538
x1 = 0.5482	1.43101	1.42892	1.42678	1.42465	1.42246
x1 = 0.5996	1.43889	1.43676	1.43456	1.43246	1.43032
x1 = 0.6501	1.44686	1.44469	1.44253	1.44035	1.43816
x1 = 0.7	1.45499	1.45282	1.45064	1.44846	1.44627
x1 = 0.75	1.4634	1.4612	1.459	1.45683	1.4546
x1 = 0.8001	1.4721	1.46989	1.46772	1.4655	1.46326
x1 = 0.8499	1.48104	1.47886	1.47659	1.47441	1.47215
x1 = 0.8998	1.49033	1.48806	1.48584	1.48362	1.48135
x1 = 0.95	1.5001	1.49782	1.49555	1.49332	1.49106
x1 = 1	1.51009	1.50782	1.50561	1.50332	1.501
